Experimental data taken from patent US8779002B2, “Methods for treating a variety of diseases and conditions, and compounds useful therefor” (Salk Institute for Biological Studies, priority 2007, dated 2014).

Tests used:
primary cortical neurons = experiment: Trophic factor withdrawal (TFW) assay; assay type: cell-based, rat; conditions: Trophic factor withdrawal assay; read-out: TFW EC50
Protocol: FIG. 1A illustrates the results of a trophic factor withdrawal assay. Primary cortical neurons are prepared from 18-day-old rat embryos, and cultured at low cell density 1×10^6/35 mm dish, in serum containing medium, with different compounds Viability is then assayed 2 days later using a fluorescent live-dead assay (Molecular Probes).
Primary cortical neurons can be prepared from 18-day-old embryos of Sprague-Dawley rats as described (Liu & Schubert, J. Neurochem., 1997, 69:2285-2293 and J. Neurochem., 1998, 71:2322-2329). Briefly, the cerebral cortex is dissected out under an anatomical microscope and is freed of meninges and blood vessels. The cortex is cut into small pieces and is then dissociated by trypsin digestion and passed through a pipette tip. Dissociated neurons are suspended in various media and plated on polylysine-coated 35 mm tissue culture dishes (e.g., 1×10^6 cells/dish). Several different culture conditions can be used as known in the art. Invention compounds can be added to cell culture dishes. Cell survival can be measured 1-2 days after compound administration.
A serum-containing medium can be used which includes a minimal essential medium (Sigma) containing 30 mM glucose, 2 mM glutamine, 1 mM pyruvate, penicillin (100 U/ml), streptomycin (100 μg/ml), and 10% fetal calf serum. At a plating density of 1×10^6 cells/dish, most neurons die after one week of culture in this medium. If plated at a density of 2×10^6 cells/dish, then most neurons survive. The cell density-dependent neuronal survival in this system is most likely dependent on the neurotrophic factors secreted by the neurons, not by the glia. The results are the same when glial proliferation is inhibited by cytosine arabinoside.
The structure-activity relationships of compounds according to the present invention can be determined by measuring trophic factor withdrawal in […] primary cortical neurons. As shown in FIG. 1A-FIG. 1D, compounds are added to low density primary cultures of E18 rat cortical neurons at the time of plating, and cell survival is determined two days later by a variety of methods.

MC-65 cells = experiment: MC65 intracellular amyloid toxicity assay; assay type: cell-based; conditions: Intracellular amyloid toxicity; read-out: MC65 EC50
Protocol: FIG. 4A illustrates the viability of MC-65 cells upon exposure to the indicated concentrations of compounds, and the degree to which synthesis of the C-terminal fragment of APP is induced by the removal of tetracycline. Cell death was determined 5 days later by the MTT assay and confirmed visually. The data are plotted as percent viable, relative to controls of drug plus un-induced cells.

HT22 cells = experiment: HT22 oxidative glutamate toxicity (oxytosis) assay; assay type: cell-based, mouse; conditions: Oxidative glutamate toxicity (oxytosis); read-out: HT-22 EC50
Protocol: FIG. 1D illustrates the results of an oxidative stress assay. HT22 cells were treated with 5 mM glutamate and different concentrations of two versions of curcumin derivatives. Cell viability was measured 24 hr later by the MTT assay (J. B. Davis and P. Maher, Protein kinase C activation inhibits glutamate-induced cytotoxicity in a neuronal cell line. Brain Res. 652 (1994) 169-173). Legend for FIG. 1A, FIG. 1B and FIG. 1D: x-x, Cmpd CNB-001, o-o, Cmpd J147.
Similar toxicity assays as described above are also conducted with invention compounds using HT22 cells in an assay for oxidative stress. After exposure with 1 mM, 2 mM, 2.5 mM, or 5 mM glutamate, cell viability is determined with the MTT assay.
HT22 hippocampal neurons are treated with 5 mM glutamate and increasing concentrations of invention compounds. Cell viability is measured 24 hr later by the MTT assay (Davis and Maher, Brain Res. 652:169-173 (1994)).

Wistar rats = experiment: Novel object recognition task in rats; assay type: in vivo, rat
Protocol: FIG. 6 illustrates the effect of galantamine, compounds CNB-001, J147, SK186 and SKI 87 on object recognition task in Wistar rats. The data represent mean±SEM. *p<0.05 compared with the vehicle control.
This model is based on the greater spontaneous exploration of a novel object, compared with a familiar object, shown by rodents (see Ennaceur and Delacour in Behav. Brain Res. 31:47 (1988)). Male Wister rats are assessed for cognitive ability in a test apparatus comprising an open-field arena placed in a sound-attenuated room under dimmed lighting. Images of the open-field are captured by digital camera, and viewed on a monitor in an adjoining room. Each rat is subjected to the procedure separately and care is taken to remove any olfactory/taste cues by cleaning the arena and test objects with alcohol between trials and rats.
Adult male Wistar rats were employed in all rat studies. Animals were placed in the experimental rooms at postnatal day 80 and assigned unique identification numbers (tail marked). Pairs were housed in polycarbonate cages with filter tops and acclimated for 3 days prior to commencing any studies. Animals were maintained in a 12 hour light/dark cycle with room temperature maintained at 22±2° C. with a relative humidity maintained approximately 50%. Food and water were provided ad libitum.
All animals were examined, handled, and weighed for a further two days prior to initiation of the study to assure adequate health and suitability and to minimize non-specific stress associated with manipulation. Each animal was randomly assigned across the treatment groups and balanced by cage numbers. The novel object recognition experiment was performed during the animal's light cycle phase. Drug treatments were balanced across days and animals were only used once
The following compounds were used for this study—Reference compound (Galantamine; 3 mg/kg) was dissolved in 0.9% saline and administered i.p. 1 hour pre-test at a dose volume of 1 ml/kg, and all test compounds were handled in solution, and were kept at −80° C. until use. All compounds were administered orally 60 min prior to training at a volume of 1 ml/kg body weight.
Following a 5-minute habituation period, each rat was placed into the test arena in the presence of two identical objects (plastic shapes). Each rat was placed facing the same direction at the same position in the arena, and the time spent actively exploring the objects during a 5-minute test period (T1) was recorded. The rat was returned to its home cage between tests. After 24 hours, each rat was again placed in the test arena for 5 minutes (T2) in the presence of one of the familiar objects and a novel object, and the time spent exploring both objects was again recorded. The presentation order and position of the objects (left/right) was randomized between rats to prevent bias from order or place preference. A preference index for each object, the ratio of the time spent exploring either the familiar object or the novel object over the total time spent exploring both objects (during retention session T2) was used to measure cognitive function.
Data were analyzed by a one-way analysis of variance (ANOVA) followed by post-hoc comparisons with Fisher Tests when appropriate. An effect was considered significant if p<0.05. Data in the following tables are presented as the mean and standard error to the mean.

SMILES | EC50 (primary cortical neurons) [nM] | EC50 (MC-65 cells) [nM] | EC50 (HT22 cells) [nM] | Recognition index, Mean (Wistar rats; 3 mg/kg i.p. 1 hour pre-test, Wistar rats, n=8) | Fisher's PLSD for Recognition index, Mean Diff. (*vehicle, treatment) (Wistar rats; vehicle versus 3 mg/kg i.p.)
COc1ccc2c3c1O[C@H]1C[C@@H](O)C=C[C@@]31CCN(C)C2 [Galantamine, reference compound] | – | – | – | 74.037 | −22.114
O=C(N(N=Cc1ccccc1)c1ccccc1)C(F)(F)F [HF 38FP] | 70 | 80 | 33 | – | –
Cc1ccc(N(N=Cc2ccccc2)C(=O)C(F)(F)F)cc1 [HF 41FP] | > 1000 | > 1000 | 33 | – | –
COc1cccc(C=NN(C(=O)C(F)(F)F)c2ccc(C)cc2)c1 [HF 42FP] | 700 | 50 | 80 | – | –
COc1cccc(C=NN(C(=O)C(F)(F)F)c2ccccc2C)c1 [HF 43 FO] | > 1000 | 130 | 68 | – | –
COc1ccc(C=NN(C(=O)C(F)(F)F)c2ccc(C)cc2C)cc1 [Sk35] | 35 | 10 | 4 | – | –
Cc1ccc(N(N=Cc2ccc(C(=O)O)cc2)C(=O)C(F)(F)F)c(C)c1 [Sk36] | 300 | 300 | 100 | – | –

Continued, in another order:

EC50 (primary cortical neurons) [nM] | SMILES | EC50 (MC-65 cells) [nM] | EC50 (HT22 cells) [nM] | Recognition index, Mean (Wistar rats; 3 mg/kg i.p. 1 hour pre-test, Wistar rats, n=8) | Fisher's PLSD for Recognition index, Mean Diff. (*vehicle, treatment) (Wistar rats; vehicle versus 3 mg/kg i.p.)
> 1000 | COc1cccc(C=NN(C(C)=O)c2ccc(C)cc2C)c1 [Compound J147A] | 280 | 70 | – | –
> 1000 | Cc1ccc(N(N=Cc2ccccc2)C(=O)C(F)(F)F)c(C)c1 [HF 39FP] | 220 | 37 | – | –
100 | COc1cccc(C=NN(C(=O)C(F)(F)F)c2ccccc2)c1 [HF 40FP] | 250 | 75 | – | –
800 | Cc1ccccc1N(N=Cc1ccccc1)C(=O)C(F)(F)F [HF 43FP] | 400 | 50 | – | –
